# Laboratory results taken from publication PMC5327470, “Discovery and Optimization of Novel 5-Indolyl-7-arylimidazo[1,2-a]pyridine-8-carbonitrile Derivatives as Potent Antitubulin Agents Targeting Colchicine-binding Site” (Scientific Reports, 2017).
# “Also recorded” adds a separate entry of the source.
# What was measured:
# [1] = tested on: human fetal hepatocyte line L02; experiment: MTT assay on normal cell line L02; format: cell-based; conditions: non-cancer cell line
# Procedure: The drug candidate potency depends not only on its cytotoxicity in malignant cells, but also on its relative lack of toxicity toward normal cells.
# (§1) The antiproliferative activities in vitro of Crolibulin and all the target compounds were determined by an MTT assay. Briefly, cells were seeded into 96-well plates at a density of 1–3 × 10^4/well (depends on the cell growth rate). 24 h later, triplicate wells were treated with media and the agents. After 72 h ofincubation at 37 °C in 5% CO2, the drug containing medium wasremoved and replaced by 100 mL of fresh medium with 5 mg/mLMTT solution. After 4 h of incubation, the medium with MTT was removed, and […] of DMSO was added to each well. The plates were gently agitated until the purple formazan crystals were dissolved, and the OD490 was determinedusing a microplate reader (MK3, Thermo, Germany). The data were calculated and plotted as the percent viability compared to the control. The 50% inhibitory concentration (IC50) was defined as theconcentration that reduced the absorbance of the untreated wells by 50% of the vehicle in the MTT assay.
# [2] = tested on: HT-29, H460, A549, MKN-45 and SMMC-7721 cell lines; experiment: MTT antiproliferative assay, panel of five cancer cell lines; format: cell-based, human; conditions: ratio of IC50 values
# Procedure: IC50 values are the concentrations that cause 50% inhibition of cancer cell growth (μM). Data represent the mean values ± standard deviation (SD) of independent experiments performed in triplicate.
# as §1
# H460 (human lung cancer) = experiment: MTT antiproliferative assay, H460; format: cell-based; conditions: for IC50: Homo sapiens, MTT, 72 h, mean ± SD
# Procedure: (§2) To evaluate the antiproliferative activity, all synthesized derivatives (5a–5v and 7a–7h) were investigated for their activity in vitro against a panel of cancer cell lines including HT-29 (human colon cancer), H460 (human lung cancer), A549 (human lung carcinoma), MKN-45 (human gastric cancer) and SMMC-7721 (human liver cancer) by MTT assay. CA-4 and Crolibulin were served as positive control, and the results expressed as half-maximal inhibitory concentration (IC50). IC50 values are the concentrations that cause 50% inhibition of cancer cell growth (μM). Data represent the mean values ± standard deviation (SD) of independent experiments performed in triplicate.
# as §1
# [3] = tested on: HT-29 (human colon cancer); experiment: MTT antiproliferative assay, HT-29; format: cell-based; conditions: Homo sapiens, HT-29; MTT, 72 h, mean ± SD; read-out: IC50 (μM) ±SD HT29
# Procedure: as §2
# (§3) Cell lines and culture conditions.The human colon carcinoma cell line HT-29, the human pulmonary carcinoma cell line A549, the human gastric carcinoma cell line MKN-45, the human breast cancer cell line MDA-MB-231 and human heptocarcinoma cellline SMMC-7721were cultured in RPMI-1640 mediumcontaining 10% FBS, 100 U/mL streptomycin and 100 U/mL penicillinat 37 °C in humidified atmosphere with 5% CO2. All of the cells were purchased from the American Type Culture Collection (ATCC, Manassas, VA).
# as §1
# [4] = tested on: MKN-45 (human gastric cancer); experiment: MTT antiproliferative assay, MKN-45; format: cell-based; conditions: 72 h, mean ± SD, read-out: IC50 (μM) ±SD MKN45
# Procedure: as §2, §3, §1
# [5] = tested on: SMMC-7721 (human liver cancer); experiment: MTT antiproliferative assay, SMMC-7721; format: cell-based; conditions: 72 h, mean ± SD
# Procedure: Data represent the mean values ± standard deviation (SD) of independent experiments performed in triplicate.
# All of the cells were purchased from the American Type Culture Collection (ATCC, Manassas, VA).
# as §1, with “After 72 h ofincubation at 37 °C in 5% CO2, the drug containing medium wasremoved and replaced by 100 mL of fresh medium with 5 mg/mLMTT solution.” left out, “control.” for “control. The 50% inhibitory concentration (IC50) was defined as theconcentration that reduced the absorbance of the untreated wells by 50% of the vehicle in the MTT assay.”
# [6] = tested on: A549 (human lung carcinoma); experiment: MTT antiproliferative assay, A549; format: cell-based; conditions: 72 h, mean ± SD
# Procedure: as §2, §3, §1
# [7] = tested on: microtubules in HT-29 cells; experiment: Immunofluorescence staining of microtubule network; format: cell-based, human; conditions: 12 h, anti-α-tubulin immunostaining
# Procedure: After incubation, cells were fixed, reacted with monoclonal anti-tubulin antibody at 4 °C overnight and then reacted with fluorescein isothiocyanate (FITC) conjugated secondary antibody, DAPI was used for nuclear counter-staining, the cellular microtubules were observed under fluorescence microscope (scale bar = 20 μm).
# The HT-29 cells were seeded at 1 × 10^4 per well on a 24 wellplate and grown for 24 h. […] Cells in the control group were treated with culture medium. The control and treated cells were fixed with 4% formaldehydein PBS for 30 min at −20 °C, then washed twice with PBS and permeabilized with 0.1% (v/v) Triton X-100 in PBS for 5 min. Then, the cells were blocked with 3% bovine serum albumin(BSA) in PBS for 30 min. The primary α-tubulin antibody wasdiluted (1:100) with 2% BSA in PBS and incubated overnight at 4 °C. The cells were washed with PBS to remove unbound primaryantibody and then cells were incubated with FITC-conjugated antimousesecondary antibody, diluted (1:100) with 2% BSA in PBS, for 2 h at 37 °C. The cells were washed with PBS to remove unbound secondary antibody, nucleus was stained with 4,6-diamino-2-phenolindoldihydrochloride (DAPI) and then, immunofluorescencewas detected using a fluorescence microscope (Olympus,Tokyo, Japan).
# HT-29 cells = experiment: Cell cycle phase distribution by flow cytometry; format: cell-based, human; conditions: 24 h
# Procedure: The structural similarities between the target compounds (5a–5v and 7a–7h) with CA-4 and Crolibulin, as well as the promising cytotoxic activity led us to hypothesize that these compounds exert their antiproliferative properties through inhibition of tubulin dynamics, thus inducing mitotic arrest in cancer cells. […] Controls were treated with drug vehicle DMSO. […] And this effect is characteristic of antimitotic agents disrupting microtubule assembly.
# Data are expressed as the mean ± SEM.
# For flow cytometric analysis of DNA content, cells inexponential growth were treated with compound for 24 h[41]. The cells treated with compoundwere collected, washed twice with PBS, and then fixed with 75% alcohol overnight. Then, the cells were washed with PBS and resuspended in 100 μL of PBS, 200 mg/mL RNase wasadded for 30 min to eliminate the interference of RNA, and 20 mL/L propidium iodide (PI; Sigma) was added for 30 min.Then, the cells were washed, and the DNA content wasdetected by flow cytometer (BD Accuri C6).
# tubulin, colchicine site = experiment: Colchicine competition (competitive tubulin-binding) assay; conditions: 0, 1.6, 5 and 15 μM, 1 h at 37 °C, then 5 μM colchicine
# Procedure: Figure 6 Colchicine competition assay. […] The fluorescence was measured by Hitachi F-2500 spectrofluorometer.
# Then colchicine was added to a final concentration of 5 μM[43]. Fluorescence was determined using a Hitachi F-2500 spectrofluorometer (Tokyo, Japan) at excitation wavelengths of 365 nm and emission wavelengths of 435 nm. Blank values (buffer alone) as background were subtracted from all samples. […] Taxol, not binding in the colchicine-site of tubulin, was added as a negative control.
"IC50 (H460 (human lung cancer); NCI-H460, 72 h) [µM]",IC50 [3] [µM],IC50 [4] [µM],IC50 [5] [µM],IC50 [6] [µM],melting point [°C],Structure (SMILES),effect on normal cell L02 [1],"fold increased potency over 5a (H), 5c (3-OMe) and 5d (4-OMe) [2]","effect on microtubule network ([7]; HT-29, 20 nM)",IC50 (H460 (human lung cancer); NCI-H460) [µM],"percent of cells in G1 phase (HT-29 cells; HT-29, 20 nM) [%]","percent of cells in G1 phase (HT-29 cells; HT-29, 200 nM) [%]","percent of cells in G2 (G2/M) phase (HT-29 cells; HT-29, 200 nM) [%]","percent of cells in G1 phase (HT-29 cells; HT-29, 1000 nM) [%]","percent of cells in G2 (G2/M) phase (HT-29 cells; HT-29, 1000 nM) [%]","effect on intrinsic fluorescence of colchicine-tubulin complex (tubulin, colchicine site)","effect on microtubule network ([7]; HT-29, 32.5 nM)",fold more active in H460 than 5h (H460 (human lung cancer); ratio of IC50 values)
46.3 ± 5.26,0.16 ± 0.04,1.52 ± 0.15,0.82 ± 0.06,0.23 ± 0.04,334.3 to 335.1,"Cc1ccccc1-c1cc(-c2c[nH]c3ccccc23)n2ccnc2c1C#N [5b, 5-(1H-indol-3-yl)-7-(o-tolyl)imidazo[1,2-a]pyridine-8-carbonitrile]",negligible effects,,,,,,,,,,,
1.93 ± 0.33,0.73 ± 0.09,38.1 ± 4.42,79.3 ± 5.14,21.4 ± 2.58,317.2 to 321.8,"N#Cc1c(-c2ccc(Br)cc2)cc(-c2c[nH]c3ccc(Br)cc23)n2ccnc12 [5u, 5-(5-bromo-1H-indol-3-yl)-7-(4-bromophenyl)imidazo[1,2-a]pyridine-8-carbonitrile]",,,,,,,,,,,,
1.32 ± 0.12,0.19 ± 0.02,19.2 ± 1.35,42.6 ± 4.12,8.79 ± 0.62,195 to 199.7,"N#Cc1c(-c2ccc(F)cc2Cl)cc(-c2c[nH]c3ccccc23)n2cc(CN3CCCC3)nc12 [7g, 7-(2-chloro-4-fluorophenyl)-5-(1H-indol-3-yl)-2-(pyrrolidin-1-ylmethyl)imidazo[1,2-a]pyridine-8-carbonitrile]",,,,,,,,,,,,
1.29 ± 0.21,0.04 ± 0.001,12.2 ± 1.89,27 ± 3.06,5.34 ± 0.67,219.5 to 223.5,"CNCc1cn2c(-c3c[nH]c4ccccc34)cc(-c3ccc(F)cc3Cl)c(C#N)c2n1 [7a, 7-(2-chloro-4-fluorophenyl)-5-(1H-indol-3-yl)-2-((methylamino)methyl)imidazo[1,2-a]pyridine-8-carbonitrile]",,,,,,,,,,,,
0.67 ± 0.05,0.21 ± 0.03,13.8 ± 1.79,24.6 ± 2.73,4.87 ± 0.38,181.2 to 184.5,"CCN(CC)Cc1cn2c(-c3c[nH]c4ccccc34)cc(-c3ccc(F)cc3Cl)c(C#N)c2n1 [7e, 7-(2-chloro-4-fluorophenyl)-2-((diethylamino)methyl)-5-(1H-indol-3-yl)imidazo[1,2-a]pyridine-8-carbonitrile]",,,,,,,,,,,,
2.13 ± 0.24,0.26 ± 0.03,7.35 ± 0.54,56.3 ± 4.87,3.57 ± 0.23,320.8 to 323.2,"N#Cc1c(-c2ccc(F)cc2Cl)cc(-c2c[nH]c3ccc(Br)cc23)n2ccnc12 [5v, 5-(5-bromo-1H-indol-3-yl)-7-(2-chloro-4-fluorophenyl)imidazo[1,2-a]pyridine-8-carbonitrile]",,,,,,,,,,,,

# Second part, the compound before the results:
Structure (SMILES),"IC50 (H460 (human lung cancer); NCI-H460, 72 h) [µM]",IC50 [3] [µM],IC50 [4] [µM],IC50 [5] [µM],IC50 [6] [µM],melting point [°C],effect on normal cell L02 [1],"fold increased potency over 5a (H), 5c (3-OMe) and 5d (4-OMe) [2]","effect on microtubule network ([7]; HT-29, 20 nM)",IC50 (H460 (human lung cancer); NCI-H460) [µM],"percent of cells in G1 phase (HT-29 cells; HT-29, 20 nM) [%]","percent of cells in G1 phase (HT-29 cells; HT-29, 200 nM) [%]","percent of cells in G2 (G2/M) phase (HT-29 cells; HT-29, 200 nM) [%]","percent of cells in G1 phase (HT-29 cells; HT-29, 1000 nM) [%]","percent of cells in G2 (G2/M) phase (HT-29 cells; HT-29, 1000 nM) [%]","effect on intrinsic fluorescence of colchicine-tubulin complex (tubulin, colchicine site)","effect on microtubule network ([7]; HT-29, 32.5 nM)",fold more active in H460 than 5h (H460 (human lung cancer); ratio of IC50 values)
"N#Cc1c(-c2ccccc2Cl)cc(-c2c[nH]c3ccccc23)n2ccnc12 [5f, 7-(2-chlorophenyl)-5-(1H-indol-3-yl)imidazo[1,2-a]pyridine-8-carbonitrile]",0.18 ± 0.08,0.07 ± 0.004,0.38 ± 0.06,13.8 ± 2.23,0.95 ± 0.07,296.7 to 300.1,negligible effects,at least 1.7 fold,,,,,,,,,,
"COc1ccc(/C=C\c2cc(OC)c(OC)c(OC)c2)cc1O [CA-4, Combretastatin A-4, reference compound]",,0.05 ± 0.01,0.11 ± 0.02,1.92 ± 0.11,0.43 ± 0.053,,,,cellular microtubule depolymerization,0.08 ± 0.01,,,,,,,,
"N#Cc1c(-c2ccc(F)cc2Cl)cc(-c2c[nH]c3ccccc23)n2ccnc12 [5k, 7-(2-chloro-4-fluorophenyl)-5-(1H-indol-3-yl)imidazo[1,2-a]pyridine-8-carbonitrile]",0.05 ± 0.008,0.02 ± 0.001,0.14 ± 0.03,,0.57 ± 0.08,307.9 to 317.3,negligible effects; also recorded: minimal,,,,62.84,65.76,14.21,24.62,64.07,decreased the intrinsic colchicine fluorescence in a dose-dependent manner,cellular microtubule depolymerization,
"N#Cc1c(-c2ccc(F)cc2F)cc(-c2c[nH]c3ccccc23)n2ccnc12 [5i, 7-(2,4-difluorophenyl)-5-(1H-indol-3-yl)imidazo[1,2-a]pyridine-8-carbonitrile]",0.04 ± 0.001,0.08 ± 0.001,0.03 ± 0.006,13.6 ± 2.38,0.12 ± 0.03,340.3 to 346.2,,,,,,,,,,,,about 29 fold
"CC(=O)O[C@H]1C(=O)[C@@]2(C)[C@H]([C@H](OC(=O)c3ccccc3)[C@]3(O)C[C@H](OC(=O)[C@H](O)[C@@H](NC(=O)c4ccccc4)c4ccccc4)C(C)=C1C3(C)C)[C@]1(OC(C)=O)CO[C@@H]1C[C@@H]2O [Taxol, reference compound]",,,,,,,,,,,,,,,,scarcely effect,,
"N#Cc1c(-c2ccccc2F)cc(-c2c[nH]c3ccccc23)n2ccnc12 [5e, 7-(2-fluorophenyl)-5-(1H-indol-3-yl)imidazo[1,2-a]pyridine-8-carbonitrile]",1.16 ± 0.12,0.09 ± 0.01,0.96 ± 0.06,26.2 ± 2.82,5.67 ± 0.23,304.6 to 308.8,,at least 1.7 fold,,,,,,,,,,
